Results published in PubChem BioAssay AID1159563 (GlaxoSmithKline (GSK), 2015).
The source made the active and inactive calls. No rule for the calls is given here.

Test system: HepG2 cytotoxicity
Experiment: human hepatoma cell viability loss – cytotoxicity control (AID 1159563)

Row | Compound | IC50
1 | FC(F)(F)c1cc(C2CCCN(Cc3c[nH]c4ccccc34)C2)nc2ncnn12 (stereo unspecified) | > 100 µM (inactive)
2 | C[C@@H](Oc1cc(-n2cnc3ccc(C(O)CO)cc32)sc1C(N)=O)c1ccccc1C(F)(F)F (stereo partly specified) | > 10 µM (inactive)
3 | COc1ccc(-c2ccc3nnc(-c4ccc(O)c(OC)c4)n3c2)cn1 | > 100 µM (inactive)
4 | CN(CC1CCCO1)S(=O)(=O)c1ccc(C(=O)Nc2nc(-c3ccccn3)cs2)cc1 (stereo unspecified) | 63 µM
5 | O=C(COc1ncnc2cc([N+](=O)[O-])ccc12)NC(=O)NC1CCCCC1 | > 100 µM (inactive)
6 | COc1ccc(C(=O)Nc2c(C)nn(COc3cccc(C(F)(F)F)c3)c2C)cc1 | > 100 µM (inactive)
7 | COc1ccc(CNc2cc(C3CC3)nc(-c3nccn3C)n2)cc1 | 25 µM
8 | O=C(CCCNC(=O)c1ccc(Cl)cc1)Nc1nc(-c2ccccn2)cs1 | > 100 µM (inactive)
9 | Nc1ncnc2c1ncn2[C@@H]1O[C@H](CO)C[C@H]1O | > 100 µM (inactive)
10 | CCn1c(-c2nonc2N)nc2c([C@@H](C)O)ncc(O[C@H](CN)c3ccccc3)c21 | 79 µM
11 | COc1ccc(-c2cnc(NC(=O)c3cc(-c4ccccn4)n[nH]3)n2C)cc1 | > 100 µM (inactive)
12 | CC(C)c1sc(Cl)nc1C(=O)NCCc1nc(C(=O)Nc2ccc3c(c2)OCO3)cs1 | > 100 µM (inactive)
13 | COCCn1c(-c2ccc3c(c2)OCO3)cnc1NCc1ccccc1OC | 40 µM
14 | Cc1cccnc1NC(=O)c1cccc(OCc2c(C)noc2C)c1 | > 100 µM (inactive)
15 | COc1cccc(S(=O)(=O)Nc2ccc3c(c2)CC(N2CCC(NC(=O)C4CC4)CC2)C3)c1 (stereo unspecified) | > 100 µM (inactive)
16 | NC(N)=Nc1nc(-c2ccc(NC(N)=NCCN3CCCC3)cc2)cs1 | > 100 µM (inactive)
17 | O=C1CCCCCC1(Cc1cnc[nH]1)c1ccc(Cl)cc1Cl (stereo unspecified) | 79 µM
18 | c1ccc2[nH]c(-c3ccc(N4CCCC4)nc3)nc2c1 | > 100 µM (inactive)
19 | c1ccc2c(CCOc3nccnc3-c3ccncc3)c[nH]c2c1 | > 100 µM (inactive)
20 | COc1cccc2sc(CN(C)C(=O)C3CNCCN3c3ccc(F)cc3)c(C)c12 (stereo unspecified) | 13 µM
21 | O=S1N=C(NCCCN(Cc2ccc(F)cc2)c2ccccn2)C(NCc2ccncc2)=N1 (stereo unspecified) | 79 µM
22 | O=C(CSc1ccc(-c2ccccn2)nn1)Nc1ccc(Cl)cc1 | > 100 µM (inactive)
23 | CC(C)(C)Nc1nc(Nc2ccc3c(c2)CS(=O)(=O)C3)nc2[nH]ccc12 | 32 µM
24 | O=C(Nc1nccs1)c1ccccc1Cn1cc([N+](=O)[O-])cn1 | > 100 µM (inactive)

Row | Compound | IC50
25 | Cn1nc([N+](=O)[O-])nc1Oc1ccc(C(=O)c2ccccc2)cc1 | > 100 µM (inactive)
26 | CN(C)CCOc1ccc(N2CCN(S(=O)(=O)c3ccc(Cl)cc3)CC2)cc1 | 50 µM
27 | COc1ccc(-c2cnc(C)o2)cc1S(=O)(=O)Nc1ccc(C)cc1C | > 100 µM (inactive)
28 | Cc1nn2c(NCCCO)c3c(nc2c1-c1cccs1)CCC3 | > 100 µM (inactive)
29 | CC(C)(C)c1cc(NC2CC2)nc(-c2ccccn2)n1 | > 100 µM (inactive)
30 | CN(C)Cc1cccc(Nc2nccc(-c3ccc(NCCN)c(C#N)c3)n2)c1 | 25 µM
31 | O=C1CN(C2CCCc3c(OCc4ccncc4)cccc32)C(=O)N1C1CCCCC1 (stereo unspecified) | > 100 µM (inactive)
32 | CC1=NN(C(=O)CCn2cnc([N+](=O)[O-])n2)C(O)(C(F)(F)F)C1 (stereo unspecified) | > 100 µM (inactive)
33 | O=C(COc1nn(-c2ccccc2)c2ncccc12)NCc1ccccc1 | > 100 µM (inactive)
34 | O=C(Nc1ccc(Br)cn1)c1ccc(Cn2cnc([N+](=O)[O-])n2)cc1 | > 100 µM (inactive)
35 | Cc1c([N+](=O)[O-])c(C(=O)Nc2sc3c(c2C#N)CCC(C)C3)nn1C (stereo unspecified) | > 100 µM (inactive)
36 | Cn1nccc1NC(=O)Cn1ccc(-c2ccncc2)n1 | > 100 µM (inactive)
37 | CN1CCN(c2nc(-c3ccc(Cl)cc3)c3c(N)n(C)nc3n2)CC1 | 79 µM
38 | Clc1ccc(OCCN2CCCCC2c2cccnc2)c(Cl)c1 (stereo unspecified) | 79 µM
39 | Cn1c(CC(=O)NNC(=O)c2ccc3ccccc3n2)nc2ccccc21 | > 100 µM (inactive)
40 | COc1cc(NC(=O)Nc2cccc(CNC(=O)OC3CCCCC3)c2)ccc1-c1cnco1 | 40 µM
41 | O=C(CN(Cc1ccccn1)Cc1ccccn1)NCc1csc(-c2cccs2)n1 | > 100 µM (inactive)
42 | O=C1CN(C(=O)c2cccc(Nc3ncc(-c4ccc5c(c4)OCO5)cn3)c2)CCN1 | > 130 µM (inactive)
43 | O=C(c1cccc(Cl)c1Cl)N1CCn2c1nc(-c1ccncc1)cc2=O | > 100 µM (inactive)
44 | Cn1nc(-c2ccc(NC(=O)Cc3ccccc3Cl)cc2)c2c(N)ncnc21 | > 100 µM (inactive)
45 | COc1cnc2ccc(=O)n(CCN3CCC(NC(=O)c4ccc(Cl)cc4)CC3)c2c1 | > 100 µM (inactive)
46 | Cc1[nH]nc(C(F)(F)F)c1NC(=O)CCn1cc(Cl)c([N+](=O)[O-])n1 | > 100 µM (inactive)
47 | COc1ccc2ncc(Cl)c(CCN3CC[C@@H](NCc4cc5c(cn4)OCS5)[C@H](O)C3)c2n1 | 50 µM
48 | COc1cnc2ccc(=O)n(CCN3CCC(NC(=O)Cc4ccc(Cl)c(Cl)c4)CC3)c2c1 | 63 µM

Row | Compound | IC50
49 | CCCCNc1nccc(-c2c(-c3ccc(F)cc3)nn3c(N4CCOCC4)cccc23)n1 | > 100 µM (inactive)
50 | Cc1cc(C)n(-c2nc(NC(C)C)nc(NC(C)(C)C)n2)n1 | > 100 µM (inactive)
51 | NS(=O)(=O)c1ccc(Nc2ncc3cccc(OC4CCNCC4)c3n2)cc1 | > 100 µM (inactive)
52 | COc1ncc(-c2ccc3nccc(-c4ccncc4)c3c2)cc1NS(=O)(=O)C1CC1 | > 100 µM (inactive)
53 | NS(=O)(=O)c1ccc(Nc2nccc(-c3cnn4ncccc34)n2)cc1 | > 100 µM (inactive)
54 | Cc1cc(NC(=O)C2CCCCC2)n(-c2nc3c(c(=O)[nH]2)CCC3)n1 | 50 µM
55 | O=S(=O)(NCC(c1cccnc1)N1CCN(c2ccccc2F)CC1)c1ccc(F)cc1 (stereo unspecified) | > 100 µM (inactive)
56 | Clc1ccc(CN2CCN(C3=NCCN3)CC2)cc1Cl | 63 µM
57 | O=C(CN1CCC2(O)CCCCC2C1c1ccc2c(c1)OCO2)Nc1ccc(Cl)cc1Cl (stereo unspecified) | > 100 µM (inactive)
58 | O=C(CC1(O)C(=O)N(Cc2cccs2)c2ccc(Br)cc21)c1cccnc1 (stereo unspecified) | 63 µM
59 | COc1ccc(CNc2nsc3ccccc23)cc1OC | 50 µM
60 | Cc1ccc(Nc2nc(C3CCCN3Cc3ccn[nH]3)cs2)nc1 (stereo unspecified) | 32 µM
61 | COc1ccc(CN2CCCCC2c2nc(-c3cccnc3)no2)cc1 (stereo unspecified) | > 100 µM (inactive)
62 | COc1ccc(NS(=O)(=O)c2cc(-c3cc(C)[nH]n3)ccc2C)cc1OC | > 100 µM (inactive)
63 | CN1C(=O)c2ccccc2Sc2ccc(NC(=O)NCc3ccco3)cc21 | > 100 µM (inactive)
64 | Clc1ccc(C(CC2CCCCO2)Cn2cncn2)c(Cl)c1 (stereo unspecified) | > 100 µM (inactive)
65 | COc1ccc(NS(=O)(=O)c2cccc(NC(=O)c3cc(F)cc(F)c3)c2)cc1 | 32 µM
66 | CS(=O)(=O)c1cccc(-c2cnc(N)c3c(-c4ccc(CO)cc4)csc23)c1 | > 100 µM (inactive)
67 | O=C(CCc1ccc(-c2ccccc2)o1)N1CCN(c2ccc(O)cc2)CC1 | > 100 µM (inactive)
68 | CC(=O)Nc1ccc(-c2noc(CC3CCCN(Cc4cccc(F)c4C)C3)n2)cc1 (stereo unspecified) | > 100 µM (inactive)
69 | Cc1cc(N(C)C)nc(Nc2ccccc2C)n1 | 63 µM
70 | COCc1cc(Nc2ccccc2)nc(-c2ccccn2)n1 | 100 µM
71 | CCc1nn(-c2ncc(F)c(NC(C)C)n2)c(N)c1C1CCCCC1 | 32 µM
